Where a name gives a salt, the structure may show the parent alone. Bounds are passed on as bounds.

By Ki is commonly meant a measure of affinity in units of concentration, obtained from inhibition or displacement. A low value points to higher affinity.

Experiment [1] addresses T1, Alpha-1A adrenergic receptor (Rattus norvegicus, UniProt P43140).
T1 sequence (P43140 whole entry): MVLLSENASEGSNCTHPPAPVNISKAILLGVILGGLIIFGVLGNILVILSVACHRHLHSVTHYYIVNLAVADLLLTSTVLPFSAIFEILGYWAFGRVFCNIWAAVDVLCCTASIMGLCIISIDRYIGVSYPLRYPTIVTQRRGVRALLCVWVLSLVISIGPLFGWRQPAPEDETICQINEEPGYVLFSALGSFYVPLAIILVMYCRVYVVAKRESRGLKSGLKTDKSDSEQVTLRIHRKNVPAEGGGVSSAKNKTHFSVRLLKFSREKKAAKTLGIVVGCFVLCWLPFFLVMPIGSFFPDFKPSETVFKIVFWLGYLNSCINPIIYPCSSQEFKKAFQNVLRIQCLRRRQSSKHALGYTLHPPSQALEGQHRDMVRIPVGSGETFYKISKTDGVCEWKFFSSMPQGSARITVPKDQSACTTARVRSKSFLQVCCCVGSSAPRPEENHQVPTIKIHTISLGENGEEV

The target in experiment [2] is 5-hydroxytryptamine receptor 2A (Rattus norvegicus, UniProt P14842).
5-hydroxytryptamine receptor 2A, sequence (P14842 whole entry): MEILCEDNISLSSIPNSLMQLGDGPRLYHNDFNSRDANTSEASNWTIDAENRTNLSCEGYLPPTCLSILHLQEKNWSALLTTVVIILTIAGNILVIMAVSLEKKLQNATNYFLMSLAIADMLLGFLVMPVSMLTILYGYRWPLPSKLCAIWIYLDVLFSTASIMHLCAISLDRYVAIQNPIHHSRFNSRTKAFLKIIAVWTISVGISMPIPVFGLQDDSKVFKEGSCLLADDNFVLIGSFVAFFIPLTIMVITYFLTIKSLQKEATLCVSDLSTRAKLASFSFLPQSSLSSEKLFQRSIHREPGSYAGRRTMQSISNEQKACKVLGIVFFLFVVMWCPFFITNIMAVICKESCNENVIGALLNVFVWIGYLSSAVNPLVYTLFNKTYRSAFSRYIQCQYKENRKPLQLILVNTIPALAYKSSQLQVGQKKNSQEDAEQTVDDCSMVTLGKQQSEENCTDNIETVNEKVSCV
Experiment [3] addresses T2, Muscarinic acetylcholine receptor M2 (Rattus norvegicus, UniProt P10980).
T2 sequence (P10980 whole entry): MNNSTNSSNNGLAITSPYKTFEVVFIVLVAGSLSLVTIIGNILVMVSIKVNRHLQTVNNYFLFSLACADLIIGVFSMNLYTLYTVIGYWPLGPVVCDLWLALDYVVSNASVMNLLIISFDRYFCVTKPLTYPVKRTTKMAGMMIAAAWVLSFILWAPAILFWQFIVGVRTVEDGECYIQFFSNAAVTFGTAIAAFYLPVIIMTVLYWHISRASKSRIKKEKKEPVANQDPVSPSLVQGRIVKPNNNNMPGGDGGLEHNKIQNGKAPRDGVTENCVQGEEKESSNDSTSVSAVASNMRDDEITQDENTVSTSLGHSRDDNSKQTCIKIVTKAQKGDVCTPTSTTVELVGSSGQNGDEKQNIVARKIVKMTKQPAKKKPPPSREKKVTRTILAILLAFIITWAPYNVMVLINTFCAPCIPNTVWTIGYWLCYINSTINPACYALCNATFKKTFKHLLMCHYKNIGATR

The target in experiment [4] is Norepinephrine transporter (Rattus norvegicus, UniProt Q9JIA2).
Experiment [5] deals with D(2) dopamine receptor (Rattus norvegicus, UniProt P61169).
D(2) dopamine receptor, sequence (P61169 whole entry): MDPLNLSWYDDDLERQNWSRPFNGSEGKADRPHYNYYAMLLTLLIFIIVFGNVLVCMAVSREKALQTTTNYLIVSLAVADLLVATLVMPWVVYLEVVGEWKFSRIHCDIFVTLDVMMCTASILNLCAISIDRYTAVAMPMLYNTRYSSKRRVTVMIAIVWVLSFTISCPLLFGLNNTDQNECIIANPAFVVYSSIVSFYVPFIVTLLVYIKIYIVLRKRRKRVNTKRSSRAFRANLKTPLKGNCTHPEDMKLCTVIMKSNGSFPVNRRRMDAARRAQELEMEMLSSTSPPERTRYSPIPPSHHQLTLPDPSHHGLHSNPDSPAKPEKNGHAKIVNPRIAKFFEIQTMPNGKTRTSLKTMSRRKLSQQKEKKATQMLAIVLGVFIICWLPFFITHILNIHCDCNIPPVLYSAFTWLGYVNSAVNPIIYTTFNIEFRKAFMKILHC
The target of experiment [6] is Sodium-dependent serotonin transporter (Rattus norvegicus, UniProt P31652).
Sodium-dependent serotonin transporter, sequence (P31652 whole entry): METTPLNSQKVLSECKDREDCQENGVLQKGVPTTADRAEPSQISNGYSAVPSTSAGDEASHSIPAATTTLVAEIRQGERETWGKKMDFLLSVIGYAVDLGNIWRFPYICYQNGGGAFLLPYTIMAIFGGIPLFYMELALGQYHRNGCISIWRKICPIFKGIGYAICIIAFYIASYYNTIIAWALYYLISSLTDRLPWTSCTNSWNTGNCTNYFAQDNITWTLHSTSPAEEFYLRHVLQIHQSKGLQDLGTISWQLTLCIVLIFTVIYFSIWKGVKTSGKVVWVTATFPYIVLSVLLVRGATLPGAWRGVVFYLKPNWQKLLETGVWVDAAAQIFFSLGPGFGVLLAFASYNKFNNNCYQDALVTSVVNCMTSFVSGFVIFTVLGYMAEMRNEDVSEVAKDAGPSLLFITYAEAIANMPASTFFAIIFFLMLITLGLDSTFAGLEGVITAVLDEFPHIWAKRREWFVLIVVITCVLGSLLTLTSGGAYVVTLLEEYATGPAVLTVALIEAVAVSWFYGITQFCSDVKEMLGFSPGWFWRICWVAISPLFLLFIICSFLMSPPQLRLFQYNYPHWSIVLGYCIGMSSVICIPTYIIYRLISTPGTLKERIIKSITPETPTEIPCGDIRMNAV

With `CN(C)C[C@@H]1C2CCC(CC2)[C@@H]1c1ccc(Cl)c(Cl)c1`, the Ki was > 10 µM in experiment [1]; > 10 µM in experiment [2]; > 10 µM in experiment [3]; 0.0054 µM in experiment [4]; 0.57 µM in experiment [5]; 0.051 µM in experiment [6].
Regarding `CN1Cc2c(N)cccc2[C@H](c2ccccc2)C1` [(+/-)-2-Methyl-4-phenyl-1,2,3,4-tetrahydro-isoquinolin-8-ylamine], the Ki was 1.2 µM in experiment [1], > 10 µM in experiment [3], 0.0066 µM in experiment [4] and > 10 µM in experiment [5].
On to `C(=C\c1ccccc1)/CN1CCN(CCOC(c2ccccc2)c2ccccc2)CC1` [CAS_67469-75-4], for which the Ki in experiment [1] was 0.27 µM; in experiment [2], 1 µM; in experiment [3], 0.9 µM; in experiment [4] it was 0.029 µM; in experiment [5], 2.5 µM; in experiment [6] it was 1.9 µM.
As for `CC(NC(C)(C)C)C(=O)c1cccc(Cl)c1` (stereo unspecified) [BUPROPION HYDROCHLORIDE], the Ki in experiment [1] was > 10 µM; in experiment [3], > 10 µM; in experiment [4], 1.5 µM; in experiment [5] it was > 10 µM.
On to `Fc1ccc(C(OCCN2CCN(C/C=C/c3ccccc3)CC2)c2ccc(F)cc2)cc1`, for which the Ki in experiment [1] was determined as 2.2 µM; in experiment [2], 3.4 µM; in experiment [3], 2.2 µM; in experiment [4], 0.013 µM; in experiment [5], 0.81 µM.
Consider `CNCCCC1(c2ccccc2)SC(C)(C)c2ccccc21` (stereo unspecified) [Talsupram], for which the inhibitory constant (Ki) in experiment [1] is > 10 µM; in experiment [2], 1.6 µM; in experiment [3] it was 1.3 µM; in experiment [4] it was 0.00079 µM; in experiment [5] it was > 10 µM; in experiment [6], 0.85 µM.
`CNCCC(Oc1ccccc1OC)c1ccccc1` (stereo unspecified) [3-(2-methoxyphenoxy)-N-methyl-3-phenylpropan-1-amine]: the Ki in experiment [1] is 4.3 µM; in experiment [2] it was 0.62 µM; in experiment [3], 5 µM; in experiment [5], > 10 µM.
Consider `CN[C@H]1C[C@H](c2ccc(Cl)c(Cl)c2)c2ccccc21` [CAS_96850-13-4], for which the inhibitory constant (Ki) in experiment [1] was 0.74 µM; in experiment [3], > 10 µM; in experiment [5] it was > 10 µM.
With `COc1ccc2c(c1)CN(C)CC2c1ccc(Cl)c(Cl)c1` (stereo unspecified), the Ki in experiment [1] is 0.48 µM; in experiment [2], 0.55 µM; in experiment [3], 3.7 µM; in experiment [4], 0.0023 µM; in experiment [5] it was > 10 µM.
Consider `CN(C)CCCC1(c2ccc(F)cc2)OCc2cc(C#N)ccc21` (stereo unspecified) [CITALOPRAM HYDROBROMIDE], for which the Ki in experiment [1] was 1.6 µM; in experiment [3], 4.8 µM; in experiment [5] it was > 10 µM.

Values taken from BindingDB's records for doi:10.1111/j.1471-4159.1985.tb08803.x (Lundbeck Ais, 1985).
